According to patent US7759391B2, “Pharmaceutical composition comprising thiacremonone for treating colon cancer” (Chungbuk National University Industry Academic Cooperation …, priority 2007, dated 2010):

Experiments:
Assay type in all cases: cell-based, human
[1] = test system: HCT116 colon cancer cells; assay: Western blot of apoptosis regulatory proteins, HCT116; settings: HCT116, 30-150 μg/ml, 24 h
Method: (§1) The cells were treated with different concentrations (30-150 μg/ml) of thiacremonone at 37° C. for 24 h. Equal amounts of total proteins (50 μg/lane) were subjected to 12% SDS-PAGE. Expressions of Bax, cleaved caspase-3, cleaved PARP, Bcl-2, cIAP1/2, XIAP, and β-actin were detected by western blotting using specific antibodies. β-Actin protein was used an internal control. Panel a: SW620 colon cancer cells. Panel b: HCT116 colon cancer cells. Each band is representative of three independent experiments.
(§2) Cultured cells were washed twice with 1×PBS, followed by the addition of 1 ml of PBS, and the cells were scraped into a cold Eppendorf tube. Cells were homogenized with lysis buffer [50 mM Tris pH 8.0, 150 mM NaCl, 0.02% sodium azide, 0.2% SDS, 1 mM PMFS, 10 μl/ml aprotinin, 1% igapel 630 (Sigma-Aldrich, St. Louis, Mo., USA), 10 mM NaF, 0.5 mM EDTA, 0.1 mM EGTA, and 0.5% sodium deoxycholate] and centrifuged at 23,000×g for 15 min. The protein concentration was measured by the Bradford method (Bio-Rad Protein Assay; Bio-Rad Laboratories Inc., Hercules, Calif., USA), and equal amount of proteins (50 μg) were separated on a SDS/12%-polyacrylamide gel and then transferred to a Hybond ECL nitrocellulose membrane (Amersham Pharmacia Biotech Inc., Piscataway, N.J., USA). Blots were blocked for 2 h at room temperature with 5% (w/v) non-fat dried milk in Tris-buffered saline [10 mM Tris (pH 8.0) and 150 mM NaCl] solution containing 0.05% tween-20. […] Immunoreactive proteins were detected with the ECL Western blotting detection system. The relative density of the protein bands was scanned by densitometry using MyImage (SLB) and quantified by Labworks 4.0 software (UVP Inc.).

SW620 colon cancer cells = assay: Western blot of apoptosis regulatory proteins, SW620; settings: SW620, 30-150 μg/ml, 24 h
Method: as §1, §2

NF-κB = NF-κB luciferase reporter assay (pNF-κB-Luc), SW620; settings: SW620, 30-150 μg/ml, 8 h
Method: FIG. 1B: Colon cancer cells were transfected with pNF-κB-Luc plasmid (5×NF-κB) and then activated with TNF-α (150 U/ml) alone or TNF-α plus different concentrations (30-150 μg/ml) of thiacremonone at 37° C. in both SW620 (panel a and b) and HCT116 (panel c and d) colon cancer cells, and then the luciferase activity was determined. All values represent mean±S.D. of three independent experiments performed in triplicate. RLU is relative to luciferase activity in transfected unstimulated cells. *P<0.05 indicates statistically significant differences from the TNF-α-treated group.
SW620 and HCT116 human colon cells (2.5×10^5 cells/cm^2) were plated in 24-well plates and transiently transfected with pNF-κB-Luc plasmid (5×NF-κB; Stratagene, La Jolla, Calif., USA) using a mixture of plasmid and lipofectAMINE PLUS in OPTI-MEN according to manufacturer's specifications (Invitrogen, Carlsbad, Calif., USA). The transfected cells were treated with tumor necrosis factor-α (TNF-α) (10 ng/ml) or TPA (50 nM) and different concentrations (30-150 μg/ml) of thiacremonone for 8 h. Luciferase activity was measured by using the luciferase assay kit (Promega, Madison, Wis., USA) according to the manufacturer's instructions (WinGlow, Bad Wildbad, Germany).

CC1=C(O)C(=O)C(C)(O)S1 (stereo not shown) [thiacremonone, 2,4-dihydroxy-2,5-dimethyl-thiophene-3-one]
Expressions of apoptotic proteins Bax, cleaved caspases 3, cleaved PARP [1]: increased | expressions of antiapoptotic protein Bcl-2, cIAP1/2, XIAP and cyclin D1 [1]: decreased | iNOS and COX-2 expression [1]: inhibited the expressions dose-dependently | Expressions of apoptotic proteins Bax, cleaved caspases 3, cleaved PARP (SW620 colon cancer cells): increased | expressions of antiapoptotic protein Bcl-2, cIAP1/2, XIAP and cyclin D1 (SW620 colon cancer cells): decreased | iNOS and COX-2 expression (SW620 colon cancer cells): inhibited the expressions dose-dependently | TNF-α and TPA induced NF-κB luciferase activity (NF-κB): inhibited TNF-α and TPA induced NF-κB luciferase activity dose-dependently
